Consider one substance from patent publication US10808008B2, “Aromatic-cationic peptides and uses of same” (Cornell University, priority 2012, dated 2020).

The target in assay [1] is T1, cytochrome c (Equus caballus, UniProt P00004). As to the kind of experiment: Fluorescence quenching of labelled peptides by cytochrome c. The class given is binding, horse. Conditions: additions of 75 μg/ml BSA. Details: from tissue; host or cells: horse heart.
Assay [2] addresses T1, cytochrome c. The description is as above. The class given is binding, horse. Set-up: from tissue; host or cells: horse heart. Conditions: Example 22; additions of cytochrome c (2 μM). How it is done: Maximal fluorescence emission of SS-19 was monitored at 420 nm following excitation at 320 nm using Hitachi F-4500 fluorescence spectrophotometer.
The quenching by cytochrome c was not displaced by sequential additions of bovine serum albumin (FIG. 12C, A+arrows) (500 μg/ml). […] Accordingly, aromatic-cationic peptides of the present disclosure are useful for the prevention or treatment of diseases or disorders characterized by dysregulation of cytochrome c.
Fluorescence emission of SS-19 (10 μM) was monitored in real time (Ex/Em=320 nm/420 nm) using Hitachi F-4500 fluorescence spectrophotometer.
Interaction of SS peptides with horse heart cytochrome c in the absence or presence of free cardiolipin or cardiolipin/POPC (1:1) liposomes (prepared as described in Example 22) was examined by fluorescence quenching of [atn]SS-02 (λex/λem=320/420 nm) and [ald]SS-02 (λex/λem=360/510 nm) upon addition of cytochrome c (using a Hitachi F-4500 fluorescence spectrophotometer). The solvents used to dissolve cardiolipin and POPC had negligible effect on cytochrome c-dependent quenching of these peptides. All experiments were done in low ionic solution (deionized water) or 20 mM Hepes pH 7.4.

T1 sequence (P00004 2-105 limits assumed): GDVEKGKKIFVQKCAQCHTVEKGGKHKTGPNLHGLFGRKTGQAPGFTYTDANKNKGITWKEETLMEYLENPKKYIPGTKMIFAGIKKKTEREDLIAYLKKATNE

Take “tetramethylrhodamine methyl ester [TMRM, reference compound]”: in assay [1], the “reversal of cytochrome c quenching by BSA” value is given as “completely reversed quenching”. For the same substance, the “quenching of fluorescence by cytochrome c” value in assay [2] is on record as “slightly quenched”.
